Reference: the NIST ThermoML archive (doi:10.1021/je300504f)
“And” between values parts separate entries of the source, which are not always exact repeats. Equal entries are not always repeated.

Assays:
[1] = Crystal; for Normal melting temperature: DTA
[2] = Molar enthalpy of transition or fusion; settings: Crystal; DSC

FC(F)(F)C(F)(F)C(F)(F)C(F)(F)C(F)(F)C(F)(F)C(F)(F)C(F)(F)C(F)(F)C(F)(F)C(F)(F)C(F)(F)C(F)(F)C(F)(F)C(F)(F)C(F)(F)C(F)(F)C(F)(F)C(F)(F)C(F)(F)F [dotetracontafluoroeicosane]
Settings	Molar enthalpy of transition or fusion [kJ/mol]	Normal melting temperature [°C]
[1]	–	163.1
[2]	50.3	–

FC(F)(F)C(F)(F)C(F)(F)C(F)(F)C(F)(F)C(F)(F)C(F)(F)C(F)(F)C(F)(F)C(F)(F)C(F)(F)C(F)(F)F [hexacosafluorododecane]
[1]
Settings	vapor or sublimation pressure [kPa]
313.3 K	0.0672
318.2 K	0.1074
323.2 K	0.1781
328.2 K	0.2832
333.2 K	0.4571
338.2 K	0.7269
343.2 K	1.039
348.2 K	1.63

Settings	Molar enthalpy of transition or fusion [kJ/mol]	Normal melting temperature [°C]
[1]	–	73.5
[2]	24.2	–

Fc1c(F)c(F)c(-c2c(F)c(F)c(F)c(F)c2F)c(F)c1F [perfluorobiphenyl]
Settings	Molar enthalpy of transition or fusion [kJ/mol]	Normal melting temperature [°C]
[1]	–	66.5
[2]	20.5	–

FC(F)(F)C(F)(F)C(F)(F)C(F)(F)C(F)(F)C(F)(F)C(F)(F)C(F)(F)C(F)(F)C(F)(F)C(F)(F)C(F)(F)C(F)(F)C(F)(F)C(F)(F)F [perfluoropentadecane]
[1]
Settings	vapor or sublimation pressure [kPa]
312.1 K	0.0006
323.2 K	0.0025
333.2 K	0.00776
338.2 K	0.0139
343.3 K	0.0238
348.2 K	0.0408
353.1 K	0.0662
358.2 K	0.1119
363.2 K	0.1796
368.2 K	0.2908

Settings	Molar enthalpy of transition or fusion [kJ/mol]	Normal melting temperature [°C]
[1]	–	115.0
[2]	35.1	–

FC(F)(F)C(F)(F)C(F)(F)C(F)(F)C(F)(F)C(F)(F)C(F)(F)C(F)(F)C(F)(F)C(F)(F)C(F)(F)C(F)(F)C(F)(F)C(F)(F)C(F)(F)C(F)(F)C(F)(F)C(F)(F)C(F)(F)C(F)(F)C(F)(F)C(F)(F)C(F)(F)C(F)(F)F [perfluorotetracosane]
Settings	Molar enthalpy of transition or fusion [kJ/mol]	Normal melting temperature [°C]
[1]	–	188.0
[2]	63.2	–

FC(F)(F)C(F)(F)C(F)(F)C(F)(F)C(F)(F)C(F)(F)C(F)(F)C(F)(F)C(F)(F)C(F)(F)C(F)(F)C(F)(F)C(F)(F)F [perfluorotridecane]
[1]
Settings	vapor or sublimation pressure [kPa]
313.2 K	0.0143
318.4 K	0.0253
323.4 K	0.0443
329.3 K	0.0796
333.5 K	0.1199
339.3 K	0.2077
343.3 K	0.297
349.2 K	0.5217
354.1 K	0.8357
358.2 K	1.147

Settings	Molar enthalpy of transition or fusion [kJ/mol]	Normal melting temperature [°C]
[1]	–	88.6
[2]	27.9	–

FC(F)(F)C(F)(F)C(F)(F)C(F)(F)C(F)(F)C(F)(F)C(F)(F)C(F)(F)C(F)(F)C(F)(F)C(F)(F)C(F)(F)C(F)(F)C(F)(F)C(F)(F)C(F)(F)F [tetratriacontafluorohexadecane]
Settings	Molar enthalpy of transition or fusion [kJ/mol]	Normal melting temperature [°C]
[1]	–	126.6
[2]	38.7	–

FC(F)(F)C(F)(F)C(F)(F)C(F)(F)C(F)(F)C(F)(F)C(F)(F)C(F)(F)C(F)(F)C(F)(F)C(F)(F)C(F)(F)C(F)(F)C(F)(F)F [triacontafluorotetradecane]
[1]
Settings	vapor or sublimation pressure
313.2 K	0.00349 kPa
318.2 K	0.00664 kPa
328.2 K	0.0191 kPa
333.2 K	0.0315 kPa
338.2 K	0.053 kPa
343.2 K	0.0971 kPa
348.2 K	0.161 kPa
353.1 K	0.2493 kPa
358.2 K	0.4128 kPa and 0.4025 kPa

Settings	Molar enthalpy of transition or fusion [kJ/mol]	Normal melting temperature [°C]
[1]	–	102.5
[2]	31.5	–
